Test system: 12 single or co-culture in vitro tissue models of primary cells
Assay: Culture/co-culture cell model panel, extracellular biomarkers (DiscoveRx); for CCL2/MCP-1: reference of the scale not given here; for CD38: reference of the scale not given here; for CD40: reference of the scale not given here; for CD69: reference of the scale not given here; for CXCL8/IL-8: reference of the scale not given here; for CXCL9/MIG: reference of the scale not given here; for IL-1alpha: reference of the scale not given here; for PBMC Cytotoxicity: reference of the scale not given here; for SRB: reference of the scale not given here
Type: cell-based, human

Cc1n[nH]c2ncc(C(=O)N3CCC[C@H]3c3ccc(Cl)cc3)cc12 [CMPD4]
CCL26/Eotaxin-3 (/TH2, 3.33E3 nM): -0.151
CD38 (/TH2, 3.33E3 nM): -0.023
CD40 (/TH2, 3.33E3 nM): -0.167
CD62E/E-Selectin (/TH2, 3.33E3 nM): 0.088
CD62P/P-selectin (/TH2, 3.33E3 nM): -0.076
CD69 (/TH2, 3.33E3 nM): 0.020
CD87/uPAR (/TH2, 3.33E3 nM): -0.191
CD106/VCAM-1 (/TH2, 3.33E3 nM): 0.009
CXCL8/IL-8 (/TH2, 3.33E3 nM): -0.082
CXCL9/MIG (/TH2, 3.33E3 nM): -0.033
Collagen IV (/TH2, 3.33E3 nM): 0.00458
PBMC Cytotoxicity (/TH2, 3.33E3 nM): -0.051
SRB (/TH2, 3.33E3 nM): -0.131
sIL-17A (/TH2, 3.33E3 nM): 0.034
sIL-17F (/TH2, 3.33E3 nM): 0.022
CCL2/MCP-1 (/TH2, 3.70E2 nM): -0.111
CCL26/Eotaxin-3 (/TH2, 3.70E2 nM): -0.170
CD38 (/TH2, 3.70E2 nM): 0.020
CD40 (/TH2, 3.70E2 nM): -0.169
CD62E/E-Selectin (/TH2, 3.70E2 nM): 0.039
CD62P/P-selectin (/TH2, 3.70E2 nM): -0.043
CD69 (/TH2, 3.70E2 nM): 0.055
CD87/uPAR (/TH2, 3.70E2 nM): -0.203
CD106/VCAM-1 (/TH2, 3.70E2 nM): 0.023
CXCL8/IL-8 (/TH2, 3.70E2 nM): -0.040
CXCL9/MIG (/TH2, 3.70E2 nM): -0.019
Collagen IV (/TH2, 3.70E2 nM): -0.00656
PBMC Cytotoxicity (/TH2, 3.70E2 nM): 0.007
SRB (/TH2, 3.70E2 nM): -0.083
sIL-17A (/TH2, 3.70E2 nM): 0.040
sIL-17F (/TH2, 3.70E2 nM): 0.00074
CCL2/MCP-1 (/TH2, 4.12E1 nM): -0.080
CCL26/Eotaxin-3 (/TH2, 4.12E1 nM): -0.157
CD38 (/TH2, 4.12E1 nM): 0.006
CD40 (/TH2, 4.12E1 nM): -0.170
CD62E/E-Selectin (/TH2, 4.12E1 nM): 0.069
CD62P/P-selectin (/TH2, 4.12E1 nM): -0.051
CD69 (/TH2, 4.12E1 nM): 0.028
CD87/uPAR (/TH2, 4.12E1 nM): -0.181
CD106/VCAM-1 (/TH2, 4.12E1 nM): 0.009
CXCL8/IL-8 (/TH2, 4.12E1 nM): -0.049
CXCL9/MIG (/TH2, 4.12E1 nM): -0.018
Collagen IV (/TH2, 4.12E1 nM): -0.002
PBMC Cytotoxicity (/TH2, 4.12E1 nM): -0.057
SRB (/TH2, 4.12E1 nM): -0.051
sIL-17A (/TH2, 4.12E1 nM): 0.042
sIL-17F (/TH2, 4.12E1 nM): 0.053
CCL2/MCP-1 (/TH2, 4.57E0 nM): -0.000419
CCL26/Eotaxin-3 (/TH2, 4.57E0 nM): -0.103
CD38 (/TH2, 4.57E0 nM): -0.00453
CD40 (/TH2, 4.57E0 nM): -0.110
CD62E/E-Selectin (/TH2, 4.57E0 nM): 0.029
CD62P/P-selectin (/TH2, 4.57E0 nM): 0.013
CD69 (/TH2, 4.57E0 nM): 0.026
CD87/uPAR (/TH2, 4.57E0 nM): -0.100
CD106/VCAM-1 (/TH2, 4.57E0 nM): 0.017
CXCL8/IL-8 (/TH2, 4.57E0 nM): 0.027
CXCL9/MIG (/TH2, 4.57E0 nM): 0.021
Collagen IV (/TH2, 4.57E0 nM): 0.011
PBMC Cytotoxicity (/TH2, 4.57E0 nM): -0.009
SRB (/TH2, 4.57E0 nM): -0.014
sIL-17A (/TH2, 4.57E0 nM): 0.056
sIL-17F (/TH2, 4.57E0 nM): 0.044
CCL26/Eotaxin-3 (BENo, 1.00E4 nM): 0.048
CD54/ICAM-1 (BENo, 1.00E4 nM): -0.115
CD87/uPAR (BENo, 1.00E4 nM): -0.014
CXCL8/IL-8 (BENo, 1.00E4 nM): -0.033
CXCL9/MIG (BENo, 1.00E4 nM): 0.082
CXCL10/IP-10 (BENo, 1.00E4 nM): -0.00135
CXCL11/I-TAC (BENo, 1.00E4 nM): -0.038
EGFR (BENo, 1.00E4 nM): 0.006
HLA-DR (BENo, 1.00E4 nM): -0.032
IL-1alpha (BENo, 1.00E4 nM): -0.034
Keratin 8/18 (BENo, 1.00E4 nM): -0.032
MMP-1 (BENo, 1.00E4 nM): 0.000562
MMP-9 (BENo, 1.00E4 nM): -0.051
PAI-I (BENo, 1.00E4 nM): -0.097
SRB (BENo, 1.00E4 nM): -0.020
tPA (BENo, 1.00E4 nM): -0.115
uPA (BENo, 1.00E4 nM): -0.041
CCL26/Eotaxin-3 (BENo, 1.11E3 nM): -0.033
CD54/ICAM-1 (BENo, 1.11E3 nM): -0.081
CD87/uPAR (BENo, 1.11E3 nM): -0.049
CXCL8/IL-8 (BENo, 1.11E3 nM): -0.031
CXCL9/MIG (BENo, 1.11E3 nM): -0.00357
CXCL10/IP-10 (BENo, 1.11E3 nM): -0.058
CXCL11/I-TAC (BENo, 1.11E3 nM): -0.048
EGFR (BENo, 1.11E3 nM): 0.007
HLA-DR (BENo, 1.11E3 nM): 0.036
IL-1alpha (BENo, 1.11E3 nM): -0.027
Keratin 8/18 (BENo, 1.11E3 nM): 3.05e-5
MMP-1 (BENo, 1.11E3 nM): -0.038
MMP-9 (BENo, 1.11E3 nM): -0.005
PAI-I (BENo, 1.11E3 nM): -0.107
SRB (BENo, 1.11E3 nM): 0.008
tPA (BENo, 1.11E3 nM): -0.047
uPA (BENo, 1.11E3 nM): -0.007
CCL26/Eotaxin-3 (BENo, 1.23E2 nM): -0.013
CD54/ICAM-1 (BENo, 1.23E2 nM): -0.092
CD87/uPAR (BENo, 1.23E2 nM): -0.00225
CXCL8/IL-8 (BENo, 1.23E2 nM): -0.028
CXCL9/MIG (BENo, 1.23E2 nM): -0.018
CXCL10/IP-10 (BENo, 1.23E2 nM): -0.010
CXCL11/I-TAC (BENo, 1.23E2 nM): -0.021
EGFR (BENo, 1.23E2 nM): 0.013
HLA-DR (BENo, 1.23E2 nM): 0.00213
IL-1alpha (BENo, 1.23E2 nM): 0.008
Keratin 8/18 (BENo, 1.23E2 nM): -0.021
MMP-1 (BENo, 1.23E2 nM): -0.035
MMP-9 (BENo, 1.23E2 nM): -0.086
PAI-I (BENo, 1.23E2 nM): -0.061
SRB (BENo, 1.23E2 nM): 0.015
tPA (BENo, 1.23E2 nM): -0.029
uPA (BENo, 1.23E2 nM): -0.020
CCL26/Eotaxin-3 (BENo, 1.37E1 nM): 0.037
CD54/ICAM-1 (BENo, 1.37E1 nM): -0.062
CD87/uPAR (BENo, 1.37E1 nM): 0.021
CXCL8/IL-8 (BENo, 1.37E1 nM): -0.025
CXCL9/MIG (BENo, 1.37E1 nM): -0.110
CXCL10/IP-10 (BENo, 1.37E1 nM): -0.013
CXCL11/I-TAC (BENo, 1.37E1 nM): -0.064
EGFR (BENo, 1.37E1 nM): 0.011
HLA-DR (BENo, 1.37E1 nM): 0.054
IL-1alpha (BENo, 1.37E1 nM): -0.002
Keratin 8/18 (BENo, 1.37E1 nM): -0.018
MMP-1 (BENo, 1.37E1 nM): -0.037
MMP-9 (BENo, 1.37E1 nM): -0.035
PAI-I (BENo, 1.37E1 nM): -0.045
SRB (BENo, 1.37E1 nM): 0.023
tPA (BENo, 1.37E1 nM): 0.009
uPA (BENo, 1.37E1 nM): -0.014
CCL26/Eotaxin-3 (BENo, 3.33E3 nM): -0.026
CD54/ICAM-1 (BENo, 3.33E3 nM): -0.069
CD87/uPAR (BENo, 3.33E3 nM): -0.045
CXCL8/IL-8 (BENo, 3.33E3 nM): -0.035
CXCL9/MIG (BENo, 3.33E3 nM): -0.00357
CXCL10/IP-10 (BENo, 3.33E3 nM): -0.006
CXCL11/I-TAC (BENo, 3.33E3 nM): -0.044
EGFR (BENo, 3.33E3 nM): 0.00248
HLA-DR (BENo, 3.33E3 nM): 0.016
IL-1alpha (BENo, 3.33E3 nM): -0.032
Keratin 8/18 (BENo, 3.33E3 nM): -0.033
MMP-1 (BENo, 3.33E3 nM): -0.028
MMP-9 (BENo, 3.33E3 nM): -0.009
PAI-I (BENo, 3.33E3 nM): -0.091
SRB (BENo, 3.33E3 nM): -0.011
tPA (BENo, 3.33E3 nM): -0.052
uPA (BENo, 3.33E3 nM): -0.052
CCL26/Eotaxin-3 (BENo, 3.70E2 nM): -0.028
CD54/ICAM-1 (BENo, 3.70E2 nM): -0.092
CD87/uPAR (BENo, 3.70E2 nM): -0.025
CXCL8/IL-8 (BENo, 3.70E2 nM): -0.027
CXCL9/MIG (BENo, 3.70E2 nM): -0.00262
CXCL10/IP-10 (BENo, 3.70E2 nM): -0.017
CXCL11/I-TAC (BENo, 3.70E2 nM): -0.036
EGFR (BENo, 3.70E2 nM): -0.014
HLA-DR (BENo, 3.70E2 nM): -0.009
IL-1alpha (BENo, 3.70E2 nM): -0.009
Keratin 8/18 (BENo, 3.70E2 nM): -0.013
MMP-1 (BENo, 3.70E2 nM): -0.038
MMP-9 (BENo, 3.70E2 nM): -0.012
PAI-I (BENo, 3.70E2 nM): -0.072
SRB (BENo, 3.70E2 nM): 0.008

From article PMC5224920, “Assessing the mechanism and therapeutic potential of modulators of the human Mediator complex-associated protein kinases” (eLife, 2016)
